Where two headings read alike, the source gives them in different places.

Test in all cases: biochemical
The target in assay [1] is T1, panel of 374 wild-type kinases (Homo sapiens, UniProt P24941).
T1 construct: purchased Reaction Biology Corporation

Assay [2] has as its target T2, panel of 374 wild-type kinases (Homo sapiens, UniProt P52564).
T2 construct: purchased Reaction Biology Corporation
T2 sequence (P52564 1-334): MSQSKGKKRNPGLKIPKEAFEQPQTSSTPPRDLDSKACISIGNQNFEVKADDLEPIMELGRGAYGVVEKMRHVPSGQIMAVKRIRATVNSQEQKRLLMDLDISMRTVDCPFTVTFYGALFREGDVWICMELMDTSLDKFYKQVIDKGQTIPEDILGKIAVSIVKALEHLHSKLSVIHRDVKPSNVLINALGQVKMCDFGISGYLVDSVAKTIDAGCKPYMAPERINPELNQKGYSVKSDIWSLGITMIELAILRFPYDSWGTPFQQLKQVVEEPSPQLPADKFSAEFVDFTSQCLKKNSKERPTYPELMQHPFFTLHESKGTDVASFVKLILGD
The conditions noted are these: read-out: % Enzyme Activity (relative to DMSO controls), MKK6.

Assay [3] concerns the target T3, panel of 374 wild-type kinases (Homo sapiens, UniProt Q16644).
T3 construct: purchased Reaction Biology Corporation
To be noted: read-out: % Enzyme Activity (relative to DMSO controls), MAPKAPK3.

Assay [4] concerns the target T4, panel of 374 wild-type kinases (Homo sapiens, UniProt Q6P3R8).
T4 construct: purchased Reaction Biology Corporation
T4 sequence (Q6P3R8 1-708): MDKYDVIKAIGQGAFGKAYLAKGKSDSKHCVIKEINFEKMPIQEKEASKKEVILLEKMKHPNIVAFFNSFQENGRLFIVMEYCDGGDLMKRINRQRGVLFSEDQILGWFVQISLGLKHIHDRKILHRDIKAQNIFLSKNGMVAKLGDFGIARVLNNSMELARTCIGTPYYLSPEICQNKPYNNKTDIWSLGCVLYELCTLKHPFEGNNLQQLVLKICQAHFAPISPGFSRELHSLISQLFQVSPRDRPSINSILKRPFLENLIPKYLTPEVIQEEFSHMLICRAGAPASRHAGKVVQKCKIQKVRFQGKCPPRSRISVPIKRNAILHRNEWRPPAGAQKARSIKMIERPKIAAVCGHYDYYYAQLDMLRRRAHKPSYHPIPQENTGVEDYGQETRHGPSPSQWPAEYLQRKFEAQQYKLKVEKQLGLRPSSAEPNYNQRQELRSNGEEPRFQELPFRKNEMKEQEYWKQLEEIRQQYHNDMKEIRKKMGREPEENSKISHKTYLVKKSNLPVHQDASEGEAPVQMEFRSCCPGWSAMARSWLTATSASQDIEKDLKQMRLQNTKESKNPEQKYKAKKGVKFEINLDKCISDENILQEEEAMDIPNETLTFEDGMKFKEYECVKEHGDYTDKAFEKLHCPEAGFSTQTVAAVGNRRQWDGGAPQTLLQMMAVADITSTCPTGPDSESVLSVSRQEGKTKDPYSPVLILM
To be noted: read-out: % Enzyme Activity (relative to DMSO controls), NEK5.

Assay [5] has as its target T5, panel of 374 wild-type kinases (Homo sapiens, UniProt Q9UL54).
T5 construct: purchased Reaction Biology Corporation
T5 sequence (Q9UL54 1-1235): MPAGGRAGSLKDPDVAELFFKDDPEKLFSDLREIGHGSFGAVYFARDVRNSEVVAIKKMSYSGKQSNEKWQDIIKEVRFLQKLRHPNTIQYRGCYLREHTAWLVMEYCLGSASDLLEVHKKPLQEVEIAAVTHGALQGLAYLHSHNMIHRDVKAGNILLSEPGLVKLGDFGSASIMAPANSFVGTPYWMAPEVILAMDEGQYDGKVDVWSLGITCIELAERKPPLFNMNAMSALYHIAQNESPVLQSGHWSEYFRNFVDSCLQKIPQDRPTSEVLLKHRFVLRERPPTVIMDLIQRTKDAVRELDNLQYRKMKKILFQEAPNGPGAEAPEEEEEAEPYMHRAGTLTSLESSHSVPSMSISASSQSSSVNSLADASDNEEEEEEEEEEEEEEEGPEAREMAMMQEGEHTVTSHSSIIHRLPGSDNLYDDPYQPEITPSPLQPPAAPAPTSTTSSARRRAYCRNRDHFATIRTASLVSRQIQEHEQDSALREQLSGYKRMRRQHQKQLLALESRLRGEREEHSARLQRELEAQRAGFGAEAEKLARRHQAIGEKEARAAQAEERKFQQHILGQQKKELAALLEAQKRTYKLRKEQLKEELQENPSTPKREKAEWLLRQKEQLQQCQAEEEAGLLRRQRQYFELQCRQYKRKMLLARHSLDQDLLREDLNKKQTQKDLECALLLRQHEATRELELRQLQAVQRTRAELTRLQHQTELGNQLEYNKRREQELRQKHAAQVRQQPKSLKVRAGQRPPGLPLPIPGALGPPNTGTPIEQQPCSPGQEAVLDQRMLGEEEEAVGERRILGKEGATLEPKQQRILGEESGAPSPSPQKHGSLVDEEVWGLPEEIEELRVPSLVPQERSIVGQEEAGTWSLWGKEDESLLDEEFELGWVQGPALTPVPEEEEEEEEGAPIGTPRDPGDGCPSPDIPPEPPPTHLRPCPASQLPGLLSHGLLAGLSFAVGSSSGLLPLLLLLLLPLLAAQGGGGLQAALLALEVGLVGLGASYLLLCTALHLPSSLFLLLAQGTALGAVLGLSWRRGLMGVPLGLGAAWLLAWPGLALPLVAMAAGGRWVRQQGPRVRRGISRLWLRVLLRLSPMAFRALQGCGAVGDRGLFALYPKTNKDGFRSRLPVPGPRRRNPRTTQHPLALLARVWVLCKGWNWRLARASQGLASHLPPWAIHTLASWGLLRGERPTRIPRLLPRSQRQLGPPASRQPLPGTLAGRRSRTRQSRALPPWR
The conditions noted are these: read-out: % Enzyme Activity (relative to DMSO controls), kinase TAOK2/TAO1.

[6] abbreviates: read-out: % Enzyme Activity (relative to DMSO controls), CDK2/Cyclin A1.
[7] abbreviates: read-out: % Enzyme Activity (relative to DMSO controls), CDK2/cyclin A.
The mark [8] stands for this setting: read-out: % Enzyme Activity (relative to DMSO controls), CDK2/cyclin E2.
The mark [9] stands for this setting: read-out: % Enzyme Activity (relative to DMSO controls), CDK2/cyclin E.
Setting [10] is: read-out: % Enzyme Activity (relative to DMSO controls), CDK2/cyclin O.

T3 sequence (Q16644 whole entry): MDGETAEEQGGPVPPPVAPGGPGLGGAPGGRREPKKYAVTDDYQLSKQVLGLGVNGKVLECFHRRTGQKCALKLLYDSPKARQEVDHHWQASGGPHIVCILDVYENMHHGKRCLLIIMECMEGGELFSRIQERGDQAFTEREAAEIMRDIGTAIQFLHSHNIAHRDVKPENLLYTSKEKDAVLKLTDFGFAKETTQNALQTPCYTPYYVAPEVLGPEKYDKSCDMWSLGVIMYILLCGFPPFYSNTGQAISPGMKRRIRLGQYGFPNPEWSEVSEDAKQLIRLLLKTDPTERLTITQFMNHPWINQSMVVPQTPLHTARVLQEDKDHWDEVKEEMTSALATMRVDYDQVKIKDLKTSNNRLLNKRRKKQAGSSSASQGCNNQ

For the compound `O=C(Nc1cnn(-c2csc(C(=O)NC3COC3)c2)c1)Nc1ccccc1Cl` [Compound 17, 4-(4-(3-(2-chlorophenyl)ureido)-1H-pyrazol-1-yl)-N-(oxetan-3-yl)thiophene-2-carboxamide], the remaining activity at 5 µM in assay [1] (setting [6]) amounted to 106%; in assay [1] (setting [7]), 93.6%; in assay [1] (setting [8]), 107%; in assay [1] (setting [9]), 99%; in assay [1] (setting [10]) it was 93.2%; in assay [2], 96.4%. For the same compound, the remaining activity at 5 µM was found to be 83.5% in assay [3], 110% in assay [4] and 101% in assay [5].
Take `O=C(Nc1cnn(-c2csc(C(=O)NC3COC3)c2)c1)Nc1c(F)cccc1Cl` [Compound 25, 4-(4-(3-(2-chloro-6-fluorophenyl)ureido)-1H-pyrazol-1-yl)-N-(oxetan-3-yl)thiophene-2-carboxamide]: the remaining activity at 5 µM in assay [1] (setting [6]) amounted to 94.2%; in assay [1] (setting [7]), 93.8%; in assay [1] (setting [8]), 98.9%; in assay [1] (setting [9]) it was 94.6%; in assay [1] (setting [10]) it was 94.1%; in assay [2], 94.4%. The remaining activity at 5 µM in assay [3] stood at 95.6%; in assay [4] it was 88.1%; in assay [5], 88.2%.
For `Cc1sc(C(=O)NC2COC2)cc1-n1cc(NC(=O)Nc2c(F)cccc2Cl)cn1` [Compound 27, 4-(4-(3-(2-chloro-6-fluorophenyl)ureido)-1H-pyrazol-1-yl)-5-methyl-N-(oxetan-3-yl)thiophene-2-carboxamide], the remaining activity at 10 µM in assay [1] (setting [6]) is 111%; in assay [1] (setting [7]), 98.3%; in assay [1] (setting [8]), 90.8%; in assay [1] (setting [9]), 106%; in assay [1] (setting [10]) it was 105%; in assay [2] (10 uM), 86.4%. In addition, the remaining activity at 10 µM in assay [3] (10 uM) came to 110%; in assay [4] (10 uM), 105%; in assay [5] (10 uM), 93.3%.

For the origin of these results see patent US20240246942A1, “KINASE INHIBITORS FOR THE TREATMENT OF NEURODEGENERATIVE DISEASES” (priority 2020, published 2024).
